# In PubChem BioAssay AID1963865 (Molecular Pharmacology Branch, DTP, NCI, 2024):
# Tested on: KRAS PDC multicell spheroid viability
# Assay: Anticancer human tumor 825966-067-R-J1-PDC patient-derived colon carcinoma cell line growth inhibition [KRAS2]
# Conditions: for viability, T/C: stronger effect = lower value; for IC50: curve of first compound
# Method in brief: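 KRAS-mutant tumor cells were grown as spheroids with HUVEC endothelial cells and human MSCs as stroma. Targeted agents were tested alone and with KRAS pathway inhibitors. Doses started at or near clinical Cmax, or 10 microM, descending half-log.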
# [1] = second compound 0.1 µM, first compound 0.0316 µM
# [2] = second compound 0.1 µM, first compound 0.1 µM
# [3] = second compound 0.1 µM, first compound 0.316 µM
# [4] = second compound 0.1 µM, first compound 1 µM
# [5] = second compound 0.1 µM, first compound 3.16 µM
# [6] = second compound 0.1 µM, first compound 10 µM
# [7] = second compound 0.316 µM, first compound 0.0316 µM
# [8] = second compound 0.316 µM, first compound 0.1 µM
# [9] = second compound 0.316 µM, first compound 0.316 µM
# [10] = second compound 0.316 µM, first compound 1 µM
# [11] = second compound 0.316 µM, first compound 3.16 µM
# [12] = second compound 0.316 µM, first compound 10 µM
# [13] = second compound 1 µM, first compound 0.0316 µM
# [14] = second compound 1 µM, first compound 0.1 µM
# [15] = second compound 1 µM, first compound 0.316 µM
# [16] = second compound 1 µM, first compound 1 µM
# [17] = second compound 1 µM, first compound 3.16 µM
# [18] = second compound 1 µM, first compound 10 µM
# [19] = second compound 3.16 µM, first compound 0.0316 µM
# [20] = second compound 3.16 µM, first compound 0.1 µM
# [21] = second compound 3.16 µM, first compound 0.316 µM
# [22] = second compound 3.16 µM, first compound 1 µM
# [23] = second compound 3.16 µM, first compound 3.16 µM
# [24] = second compound 3.16 µM, first compound 10 µM
# [25] = second compound 10 µM, first compound 0.0316 µM
# [26] = second compound 10 µM, first compound 0.1 µM
# [27] = second compound 10 µM, first compound 0.316 µM
# [28] = second compound 10 µM, first compound 1 µM
# [29] = second compound 10 µM, first compound 3.16 µM
# [30] = second compound 10 µM, first compound 10 µM
# 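Also: spheroids exposed to compounds for 7 days.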
# 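For viability, T/C in this document: 100% = DMSO vehicle control viability.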
Compound,IC50 (second compound 0.1 µM),IC50 (second compound 0.316 µM),IC50 (second compound 1 µM),IC50 (second compound 3.16 µM),"viability, T/C [1]","viability, T/C [2]","viability, T/C [3]","viability, T/C [4]","viability, T/C [5]","viability, T/C [6]","viability, T/C [7]","viability, T/C [8]","viability, T/C [9]","viability, T/C [10]","viability, T/C [11]","viability, T/C [12]","viability, T/C [13]","viability, T/C [14]","viability, T/C [15]","viability, T/C [16]",further results
COc1cc(OC)cc(N(CCNC(C)C)c2ccc3ncc(-c4cnn(C)c4)nc3c2)c1,–,–,–,–,–,–,–,–,–,–,–,–,–,–,–,–,–,–,–,–,"viability, T/C (compound 0.0316 µM): 92.5% [middle of 5 runs]; viability, T/C (compound 0.1 µM): 89.2% [middle of 5 runs]; viability, T/C (compound 0.316 µM): 91.1% [middle of 5 runs]; viability, T/C (compound 1 µM): 95.6% [middle of 5 runs]"
Cn1nccc1Nc1nccc(-c2cc3c(s2)C(C)(C)N(CCN2CCOCC2)C3=O)n1 + COc1cc2nc(C)nc(NC(C)c3cc(N)cc(C(F)(F)F)c3)c2cc1OC1CCOC1,> 10 µM,> 10 µM,> 10 µM,10 µM,105%,120%,146%,102%,83.1%,72.2%,110%,112%,126%,81%,83.8%,67.7%,114%,117%,121%,79.3%,"IC50 (second compound 10 µM): 0.0952 µM; viability, T/C [17]: 80.9%; viability, T/C [18]: 65.7%; viability, T/C [19]: 103%; viability, T/C [20]: 130%; viability, T/C [21]: 85.7%; viability, T/C [22]: 49.7%; viability, T/C [23]: 62.5%; viability, T/C [24]: 45.6%; viability, T/C [25]: 70.3%; viability, T/C [26]: 49.1%; viability, T/C [27]: 2.05%; viability, T/C [28]: 0.83%; viability, T/C [29]: 0.32%; viability, T/C [30]: 0.87%"
O=C(c1cc(Cc2n[nH]c(=O)c3ccccc23)ccc1F)N1CCN(C(=O)C2CC2)CC1 + CC1OCC2(CCN(c3cnc(Sc4ccnc(N)c4Cl)c(N)n3)CC2)C1N,> 10 µM,> 10 µM,> 10 µM,> 10 µM,78.2%,67.3%,82%,71.1%,80.6%,81.4%,79.2%,76.2%,92.6%,67.6%,85%,86.6%,77.8%,91.5%,75.7%,68%,"IC50 (second compound 10 µM): 0.985 µM; viability, T/C [17]: 62.5%; viability, T/C [18]: 82.2%; viability, T/C [19]: 105%; viability, T/C [20]: 109%; viability, T/C [21]: 95.1%; viability, T/C [22]: 102%; viability, T/C [23]: 102%; viability, T/C [24]: 78.1%; viability, T/C [25]: 104%; viability, T/C [26]: 89.2%; viability, T/C [27]: 77.5%; viability, T/C [28]: 54.9%; viability, T/C [29]: 17.4%; viability, T/C [30]: 17.6%"
COC(=O)c1ccc2c(C(=Nc3ccc(N(C)C(=O)CN4CCN(C)CC4)cc3)c3ccccc3)c(O)[nH]c2c1 + CNCc1ccccc1-c1csc(C(C)Nc2nc(C)nc3cc(OC)c(OC)cc23)c1,0.567 µM,1.18 µM,0.91 µM,< 0.0316 µM,84.2%,82.4%,77.7%,23.2%,0.18%,0.19%,62%,86.3%,97.5%,58.4%,0.13%,0.2%,75.7%,78.2%,87%,47.3%,"IC50 (second compound 10 µM): < 0.0316 µM; viability, T/C [17]: 0.9%; viability, T/C [18]: 0.21%; viability, T/C [19]: 23%; viability, T/C [20]: 38.6%; viability, T/C [21]: 0.57%; viability, T/C [22]: 0.22%; viability, T/C [23]: 0.13%; viability, T/C [24]: 0.21%; viability, T/C [25]: 2.62%; viability, T/C [26]: 0.25%; viability, T/C [27]: 1.09%; viability, T/C [28]: 0.18%; viability, T/C [29]: 0.17%; viability, T/C [30]: 0.26%"
CC(C)NCC(C(=O)N1CCN(c2ncnc3c2C(C)CC3O)CC1)c1ccc(Cl)cc1 (centres undefined) + C=CC(=O)N1CCN(c2nc(OCC3CCCN3C)nc3c2CCN(c2cccc4cccc(C)c24)C3)CC1CC#N,2.43 µM,2.14 µM,1.87 µM,0.447 µM,83.8%,99.2%,126%,126%,32.3%,9.94%,87.7%,118%,137%,101%,23.3%,9.48%,86.9%,98.3%,124%,88.1%,"IC50 (second compound 0.0316 µM): 2.18 µM; viability, T/C (second compound 0.0316 µM, first compound 0.0316 µM): 105%; viability, T/C (second compound 0.0316 µM, first compound 0.1 µM): 114%; viability, T/C (second compound 0.0316 µM, first compound 0.316 µM): 131%; viability, T/C (second compound 0.0316 µM, first compound 1 µM): 94.2%; viability, T/C (second compound 0.0316 µM, first compound 3.16 µM): 29.3%; viability, T/C (second compound 0.0316 µM, first compound 10 µM): 10.8%; viability, T/C [17]: 17.6%; viability, T/C [18]: 5.49%; viability, T/C [19]: 84.5%; viability, T/C [20]: 56.9%; viability, T/C [21]: 66%; viability, T/C [22]: 13.9%; viability, T/C [23]: 2.27%; viability, T/C [24]: 0.81%"
